From patent US5994323A (priority 1997, dated 1999)

Legend:
[1] = tested on: zinc precipitated Aβ; test: Chelating ability: washing of zinc-aggregated synthetic Aβ on nylon membrane, anti-Aβ 6E10 / ECL; assay type: biochemical; conditions: 10 ng synthetic Aβ aggregated with 25 μM ZnCl; wash with TBS containing 2 μM chelator; 100% for TBS alone
Procedure: Samples of 10 ng synthetic Aβ were placed in microtitre wells and caused to aggregate by the addition of 25 μM ZnCl. The aggregates were then transferred to a 0.2 μm nylon membrane by filtration. […] The membrane was fixed, probed with the anti Aβ monoclonal antibody 6E10 and developed for exposure to ECL-film. The transmittance of the ECL-film was measured and the relative signal strength calculated based on 100% for TBS alone.

[2] = 1H NMR study of the interaction of vitamin B12 with clioquinol glucuronide; assay type: binding; conditions: 2.6 mM vitamin B12 + 10 mM clioquinol glucuronide, buffered water pH 6.5, 20° C.
Procedure: Three different solutions were prepared and their ^1 H NMR spectra were recorded in a DRX 400 MHz spectrophotometer at 20° C. Solution a) contained free vitamin B12 (hydroxycobalamin) in a concentration of 2.6 mM.
In FIGS. 1A-1C the spectra of the three solutions a, b and c are presented for the aromatic region (5.5-9.8 ppm). The differences are quite small but obvious in the expansion shown of FIGS. 2A-2C and FIGS. 3B-3C respectively.

[3] = Solubility in water / aqueous solutions; assay type: physicochemical
[4] = tested on: vitamin B12 ([57Co]-cyanocobalamine); test: Influence of clioquinol on vitamin B12 in vivo: tissue radioactivity after [57Co]-cyanocobalamine injection; conditions: mice, clioquinol 50 mg/kg/day injected for three days, then [57Co]-cyanocobalamine, sacrificed after two days, ±SEM
Procedure: After three days, all of the mice were injected with [^57 Co]-cyanocobalamine. After two days, the animals were sacrificed, and the brain, liver and kidney were dissected and counted in a gamma-counter as thousand cpm/g tissue (wet weight)±SEM. The radioactivities in each of the groups are stated in Table 1 below: […]

[5] = Dissolution of clioquinol in n-decane and partition into PBS pH 7.4; assay type: physicochemical
Procedure: The resolubilization of amyloid aggregates by clioquinol was studied. […] The undissolved material was allowed to settle. […] 100 ml of the (light yellow) supernatant was agitated together with 100 ml of PBS pH 7.4 and the phases allowed to separate. The PBS (lower phase) was collected and filtered to remove the residue which formed at the phase interface upon extraction with the organic solvent.

[6] = tested on: Aβ; test: Resolubilization of amyloid aggregates in Alzheimer's disease brain homogenates (Western blot of supernatants); assay type: biochemical, human; conditions: frontal lobe neocortex, clioquinol/PBS at 100%, 10% and 1% (100%=800 nM)
Procedure: Brain specimens were obtained for which a histopathological diagnosis of Alzheimer's disease was confirmed.
The homogenates were centrifuged at 150,000 xg for thirty minutes and the supernatants collected and held on ice (fraction "S"). The pellets were subjected to an identical homogenization and centrifugation regime and the resulting supernatants again collected (fraction "P").
1 ml of each supernatant was treated with 200 μl of ice cold 10% TCA to precipitate total protein including Aβ. The resulting pellet was washed once with 100% ethanol and resuspended in 100 μl of TBS (tris 20 mM, NaCl 150 mM, pH 7.4).
7.5 μl of sample (S or P) was boiled for 5 min. with an equal volume of tris-tricine sample buffer containing 4% SDS and loaded onto a Novex pre-cast 10-20% tris-tricine gel followed by Western transfer onto nitrocellulose. Signal for Aβ was detected using mAb WO2 (raised against residues 5-16 of Aβ) and visualized using ECL. The sensitivity of the detection system is 5-10 pg. […]

[7] = tested on: zinc precipitated Aβ; test: Resolubilization of zinc-aggregated Aβ in TBS; assay type: biochemical; conditions: 2.5 μM Aβ in TBS pH 7.4, 30 μM zinc (43% in solution), then 120 μM clioquinol; 95% soluble before zinc
Procedure: The ability of clioquinol to resolubilize zinc-aggregated Aβ was assessed. A 2.5 μM solution of Aβ in TBS at a pH of 7.4 was prepared. 95% of the Aβ was maintained in a soluble state.

[8] = assumed value; 1:1 mixtures of decane/clioquinol with PBS pH 7.4; cited from earlier work
[9] = injected preparations, dosages of 10-20 mg/kg; cited from earlier work

SMILES | Relative signal strength of Aβ remaining on membrane [1] | Interaction with vitamin B12 (shift of 1H NMR resonances) [2] | Solubility in water / aqueous solutions [3] | Radioactivity in brain ([4]; control 9.4 ± 0.9) | Radioactivity in liver ([4]; control 97 ± 8) | Radioactivity in kidney ([4]; control 895 ± 207) | Fraction of clioquinol dissolved in n-decane ([5]; 5.3 g suspended in 200 ml n-decane) | Concentration of clioquinol in the PBS ([5]; PBS pH 7.4 extract of the n-decane supernatant, calculated from assumed 2% dissolution and partitioning coefficient) | Solubilization of Aβ from Alzheimer's disease brain homogenate [6] | Soluble Aβ after addition to zinc precipitated Aβ [7] | Partitioning coefficient with PBS [8] | Concentration in the brain [9]
O=C(O)CN(CCN(CC(=O)O)CC(=O)O)CC(=O)O [EDTA] | 66% |  |  |  |  |  |  |  |  |  |  | 
COC(=O)[C@H]1O[C@@H](Oc2c(I)cc(Cl)c3cccnc23)[C@H](OC(C)=O)[C@@H](OC(C)=O)[C@@H]1OC(C)=O [clioquinol glucuronide, methyl (5-chloro-7-iodo-quinolyl-2',3',4'tri-O-acetyl-glucopyranosid)uronate] |  | interaction | soluble in water |  |  |  |  |  |  |  |  | 
Oc1c(I)cc(Cl)c2cccnc12 [clioquinol, 5-chloro-7-iodo-8 hydroxyquinoline] |  |  | cannot be dissolved in aqueous solutions | 8.4 ± 1.5 thousand cpm/g tissue (wet wei | 85 ± 21 thousand cpm/g tissue (wet wei | 252 ± 61 thousand cpm/g tissue (wet wei | 2% | 800 nM | effective in promoting the solubilization of Aβ | 70% | 1/1750 | ~20 μl/ml
